US20060229316A1, “Novel antiinfective compounds, process for their preparation and pharmaceutical compositions containing them” (priority 2002, published 2006)
Converted amounts (≈) assume the structure as drawn. Read-outs that look alike come from different tables or passages of the source.

Tests used:
[1] = test system: Staphylococcus epidermidis ATCC 12228; assay: MIC by microbroth dilution, SE; assay type: cell-based
Description: (§1) The pharmaceutically acceptable compounds of the present invention are useful antibacterial agents having a good spectrum of activity in vitro and against standard Gram-positive organisms, which are used to screen for activity against pathogenic bacteria. […] The antibacterial spectrum and potency of a particular compound may be determined in a standard test system. The activity is described in terms of the minimum inhibitory concentration (MIC) determined by microbroth dilution technique as per NCCLS standards.
(§2) The minimum inhibitory concentrations (MIC's) of the compounds for the microorganisms listed in Table A were determined by preparing working solution for each compound of concentration of 128 μg/ml after dissolving it in DMSO. Two-fold serial dilution of the above solution was prepared in duplicates, using Mueller Hinton Broth, in 96 well Tissue culture plate with cover flat bottom wells to give a final volume of […] and concentration of compound ranging from 64 μg/ml-0.12 μg/ml. 30 μg/ml of Standard suspension of each organism which was prepared with turbidity equivalent to the 1:10 diluted 0.5 McFarland standard with density 10^7 CFU/ml, was added to each well to get approximately a density of 10^5 CFU/ml. These 96-well Tissue culture plate containing the test samples and positive and negative controls, were incubated at 37° C. for 16-18 hrs. The wells were visually inspected for growth and were also read at 630 nm by Automated Microplate Reader [(EL800) Trinity biotech.] and the MIC's were recorded as the lowest concentration of drug which inhibits the growth of bacteria.
(§3) The compounds of the present invention have useful activity against a variety of organisms. The in vitro activity of compounds of the present invention can be assessed by standard testing procedures such as the determination of minimum inhibitory concentration (MIC) by standard “Microdilution method” as described elsewhere in the specification. The pharmacokinetic profiling of the compounds were also done according to the protocol described in this specification. The activities of representative compounds of the present invention are given below in the following table.
SE: Staphylococcus epidermidis ATCC 12228

[2] = test system: Staphylococus aureus ATCC 33591; assay: MIC by microbroth dilution, SA; assay type: cell-based, Staphylococcus aureus; conditions: for MIC: Staphylococcus aureus
Description: as §1, §2, §3
SA: Staphylococus aureus ATCC 33591

[3] = test system: Enterococcus faecalis ATCC 29212; assay: MIC by microbroth dilution, EF; assay type: cell-based
Description: as §1, §2, §3
EF: Enterococcus faecalis ATCC 29212

[4] = test system: Methicillin resistant Staphylococus aureus 653SP; assay: MIC by microbroth dilution, first column headed SA (guide: MRSA); assay type: cell-based, Staphylococcus aureus; conditions: for MIC: Staphylococcus aureus, read-out: MIC (μg/ml) in vitro activity in gram positive organisms, SA
Description: as §1, §2, §3
MRSA: Methicillin resistant Staphylococus aureus 653SP

[5] = ATCC12228, Staphylococcus epidermidis ATCC 12228, Mueller Hinton Broth, 37° C., 16-18 hrs, read-out: MIC (μg/ml) in vitro activity in gram positive organisms, SE
[6] = ATCC33591, Staphylococus aureus ATCC 33591, Mueller Hinton Broth, 37° C., 16-18 hrs, read-out: MIC (μg/ml) in vitro activity in gram positive organisms, SA
[7] = ATCC29212, Enterococcus faecalis ATCC 29212, Mueller Hinton Broth, 37° C., 16-18 hrs, read-out: MIC (μg/ml) in vitro activity in gram positive organisms, EF
[8] = SA, Mueller Hinton Broth, 37° C., 16-18 hrs
[9] = Staphylococus aureus ATCC 33591, Mueller Hinton Broth, 37° C., 16-18 hrs
[10] = Enterococcus faecalis ATCC 29212, Mueller Hinton Broth, 37° C., 16-18 hrs
[11] = Staphylococcus epidermidis, ATCC12228, read-out: MIC (μg/ml) in vitro activity in gram positive organisms, SE
[12] = ATCC33591, read-out: MIC (μg/ml) in vitro activity in gram positive organisms, SA
[13] = Enterococcus faecalis, ATCC29212, read-out: MIC (μg/ml) in vitro activity in gram positive organisms, EF

Row | MIC [1, 5] [µg/mL] | MIC [2, 6] [µg/mL] | MIC [3, 7] [µg/mL] | MIC [4, 8] [µg/mL] | Compound | also measured
1 | 0.5 (≈ 0.957 µM) | 1 (≈ 1.91 µM) | 1 (≈ 1.91 µM) | 1 (≈ 1.91 µM) | NC(=S)NC[C@H]1CN(c2ccc(N3CCN(C(=O)C=Cc4c[nH]c5ccccc45)CC3)c(F)c2)C(=O)O1 [Compound 126, (S)-N-[3-(3-Fluoro-4-{4-[3-(1H-indol-3-yl)-acryloyl]-piperazin-1-yl]-phenyl)-2-oxo-oxazolidin-5-ylmethyl]thiourea] | 
2 | 2 (≈ 4.09 µM) | 0.5 (≈ 1.02 µM) | 0.5 (≈ 1.02 µM) | 1 (≈ 2.05 µM) | CC(=S)NC[C@H]1CN(c2ccc(N3CCN(C(=O)C=Cc4cccs4)CC3)c(F)c2)C(=O)O1 [Compound 70, (S)-N-[3-(3-Fluoro-4-{4-[3-(thiophen-2-yl)-acryloyl]-piperazinyl]-phenyl)-2-oxo-oxazolidin-5-ylmethyl]thioacetamide] | 
3 | 0.5 (≈ 1.06 µM) | 2 (≈ 4.22 µM) | 1 (≈ 2.11 µM) | 2 (≈ 4.22 µM) | NC(=S)NC[C@H]1CN(c2ccc(N3CCN(C(=O)C=Cc4ccco4)CC3)c(F)c2)C(=O)O1 [Compound 127, (S)-N-[3-(3-Fluoro-4-{4-[3-(furan-2-yl)-acryloyl]-piperazin-1-yl]-phenyl)-2-oxo-oxazolidin-5-ylmethyl]thiourea] | 
4 | 0.5 (≈ 1.02 µM) | 1 (≈ 2.04 µM) | 0.25 (≈ 0.511 µM) | 1 (≈ 2.04 µM) | NC(=S)NC[C@H]1CN(c2ccc(N3CCN(C(=O)/C=C/c4cccs4)CC3)c(F)c2)C(=O)O1 [Compound 123, (3/-N-[3-(3-Fluoro-4-{4-(thiophen-2-yl)-acryloyl]-piperazineyl]-phenyl)-2-oxo-oxazolidin-5-yl-methyl]thiourea] | melting point: 154 to 157 °C

More lines, now with the values behind:

Row | Compound | MIC [1, 5] [µg/mL] | MIC [2, 6] [µg/mL] | MIC [3, 7] [µg/mL] | MIC [4, 8] [µg/mL] | also measured
5 | CC(=O)NC[C@H]1CN(c2ccc(N3CCN(C(=O)CO)CC3)c(F)c2)C(=O)O1 [Eperzolid, reference compound] |  |  |  |  | MIC (μg/ml) in vitro activity in gram positive organisms, SA [2, 9]: 4 µg/mL (≈ 10.1 µM); MIC (μg/ml) in vitro activity in gram positive organisms, EF [3, 10]: 2 µg/mL (≈ 5.07 µM); MIC (μg/ml) in vitro activity in gram positive organisms, SA [4, 8]: 2 µg/mL (≈ 5.07 µM)
6 | CC(=S)NC[C@H]1CN(c2ccc(N3CCN(C(=O)C=Cc4ccc(O)cc4)CC3)c(F)c2)C(=O)O1 [Compound 64, (S)-N-[3-(3-Fluoro-4-{4-[3-(4-hydroxyphenyl)-acryloyl]-piperazin-1-yl]-phenyl)-2-oxo-oxazolidin-5-ylmethyl]thioacetamide] |  |  |  |  | MIC [1, 11]: 0.25 µg/mL (≈ 0.501 µM); MIC [2, 12]: 0.25 µg/mL (≈ 0.501 µM); MIC [3, 13]: 0.25 µg/mL (≈ 0.501 µM); MIC [4]: 0.5 µg/mL (≈ 1 µM)
7 | (S)-N-[3-{4-(4-(3-Benzo[1,3]-dioxol-5-yl-acryloyl)-piperazin-1-yl}-3-fluorophenyl]-2-oxo-oxazolidin-5-yl methyl thiourea [Compound 125] |  |  |  |  | MIC (μg/ml) in vitro activity in gram positive organisms, SA [2, 9]: 4 µg/mL; MIC (μg/ml) in vitro activity in gram positive organisms, EF [3, 10]: 0.5 µg/mL; MIC (μg/ml) in vitro activity in gram positive organisms, SA [4, 8]: 1 µg/mL
8 | CC(=O)NC[C@H]1CN(c2ccc(N3CCN(C/C=C/c4ccccc4)CC3)c(F)c2)C(=O)O1 (stereo in doubt) |  |  |  |  | melting point: 134 to 136 °C
9 | CC(=O)NC[C@H]1CN(c2ccc(N3CCN(C(=O)C=Cc4ccc(O)cc4)CC3)c(F)c2)C(=O)O1 [Compound 05, (S)-N-[3-(3-Fluoro-4-{4-[3-(4-hydroxyphenyl)-acryloyl]-piperazin-1-yl]-phenyl)-2-oxo-oxazolidin-5-ylmethyl]acetamide] |  |  |  |  | MIC [1, 11]: 0.5 µg/mL (≈ 1.04 µM); MIC [2, 12]: 2 µg/mL (≈ 4.14 µM); MIC [3, 13]: 0.5 µg/mL (≈ 1.04 µM); MIC [4]: 1 µg/mL (≈ 2.07 µM)
10 | CC(=S)NC[C@H]1CN(c2ccc(N3CCN(C(=O)C=Cc4ccco4)CC3)c(F)c2)C(=O)O1 [Compound 66, (S)-N-[3-(3-Fluoro-4-{4-[3-(furan-2-yl)-acryloyl]-piperazin-1-yl]-phenyl)-2-oxo-oxazolidin-5-ylmethyl]thioacetamide] | 0.5 (≈ 1.06 µM) | 0.5 (≈ 1.06 µM) | 0.5 (≈ 1.06 µM) | 1 (≈ 2.12 µM) | 
11 | CC(=O)NC[C@H]1CN(c2ccc(N3CCN(C(=O)/C=C/c4cccs4)CC3)c(F)c2)C(=O)O1 [Compound 01] | 1 (≈ 2.12 µM) |  | 1 (≈ 2.12 µM) | 0.5 (≈ 1.06 µM) | melting point: 223 to 225 °C
12 | CC(=O)NC[C@H]1CN(c2ccc(N3CCOCC3)c(F)c2)C(=O)O1 [Linezolid, reference compound] | 4 (≈ 11.9 µM) | 4 (≈ 11.9 µM) | 4 (≈ 11.9 µM) | 2 (≈ 5.93 µM) | 
13 | (S)-N-[3-(3-Fluoro-4-{4-[3-(4-hydroxyphenyl)-acryloyl]-piperazin-1-yl]-phenyl)-2-oxo-oxazolidin-5-yl methyl thiourea [Compound 124] |  |  |  |  | MIC (μg/ml) in vitro activity in gram positive organisms, SA [2, 9]: 1 µg/mL; MIC (μg/ml) in vitro activity in gram positive organisms, EF [3, 10]: 1 µg/mL; MIC (μg/ml) in vitro activity in gram positive organisms, SA [4, 8]: 1 µg/mL
